Assay results published in patent US5968581A, “Dipeptide derivatives and sweetening agents” (Ajinomoto Co., Inc., priority 1997, dated 1999).
Where two headings read alike, the source gives them in different places. Residues, ends and D or L forms follow the SMILES beside them.

Experiments:
[1] = Stability (half-life) in acidic aqueous solution, pH 3 phosphate buffer at 70° C.
[2] = Sensory evaluation: degree of sweetness relative to sucrose; settings: times that of 4% sucrose solution
[3] = pH 3

SMILES | Stability (half-life, time corresponding to 50% degradation) [1] [days] | Stability (half-life, time corresponding to 50% degradation) ([1]; listed as N-3,3-dimethylbutyl-α-L-aspartyl-α-methyl-L-tyrosine methyl. ester) | Degree of sweetness (relative to sugar) [2] [times] | Degree of sweetness (relative to sugar) ([2]; listed as N-3,3-dimethylbutyl-α-L-aspartyl-α-methyl-L-tyrosine methyl ester) | Stability (half-life, time corresponding to 50% degradation) [3]
COC(=O)[C@](C)(Cc1ccc(O)cc1)NC(=O)[C@H](CC(=O)O)NCCC(C)(C)C [Example 2, N-3,3-dimethylbutyl-α-L-aspartyl-α-methyl-L-tyrosine methyl ester] | 14.5 | about 347 hours | 700 | about 700 times | 
COC(=O)[C@H](Cc1ccccc1)NC(=O)[C@@H](N)CC(=O)O [aspartame] (H-Asp-Phe-OMe) |  |  |  |  | about 24 hours
